The target of one test is T1, NPY2 receptors (Homo sapiens, UniProt P49146).
T1 construct: Cell Membranes from KAN-TS cells having NPY2 receptors; endogenous in cells; host or cells: KAN-TS cells (membranes)
T1 sequence (P49146 1-381): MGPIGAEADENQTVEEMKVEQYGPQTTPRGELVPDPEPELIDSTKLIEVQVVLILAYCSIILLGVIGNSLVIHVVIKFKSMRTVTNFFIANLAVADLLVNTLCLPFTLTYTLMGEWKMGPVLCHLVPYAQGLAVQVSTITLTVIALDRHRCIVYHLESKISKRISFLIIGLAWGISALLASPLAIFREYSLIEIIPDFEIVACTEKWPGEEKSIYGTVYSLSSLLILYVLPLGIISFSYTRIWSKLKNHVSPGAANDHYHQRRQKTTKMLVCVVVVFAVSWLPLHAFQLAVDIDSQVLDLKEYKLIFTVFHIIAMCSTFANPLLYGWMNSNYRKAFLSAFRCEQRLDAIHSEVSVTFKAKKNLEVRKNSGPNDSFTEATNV
In words: Neuropeptide Y receptor binding assay (125I-PYY, KAN-TS cell membranes). As to conditions: 10 μM compound; read-out: NPY-2@10, % Inh. The essentials: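 Membranes from KAN-TS cells competed with 125I-PYY in binding buffer containing BSA, test compound at 10 μM final, 1 hr at room temperature. Nonspecific binding defined with 1 μM PYY final. Tubes centrifuged, washed with PBS and bound radioactivity gamma-counted.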

Test [1] concerns the target T2, human V1a receptor (Homo sapiens, UniProt P37288). Put plainly: V1a functional assay, intracellular calcium mobilization in transfected HEK-293 cells (FLIPR). On the set-up: expressed in transfected cells; host or cells: HEK-293. As to conditions: challenge 1 nM AVP; read-out: Cell-Based Functional activity V1a IC50. The procedure: (§1) V1a, V1b or V2 Functional Assay
(§2) HEK-293 cells were grown in DMEM media supplemented with 10% FBS and glutamine (Gibco BRL, Grand Island, N.Y.). Once transfected the cells were passed biweekly by trypsinization and seeded into 96 well plates at 33,000 cells per well. HEK-293 were transfected with human V1a, V1b or V2 DNA using DMRIE-C reagent from Life Technologies, Inc., Grand Island, N.Y. Cells were tested for their responsiveness to vasopressin 48 hours after transfection. Stable lines were generated by selecting cells grown in culture media containing geneticin (500 μg/ml, Life Technologies).
(§3) Intracellular calcium mobilization was measured in HEK-293 cells transfected to express either human V1a, oxytocin or V1b receptors. Cells were plated into black 96-well Packard Clear-View plates 4 to 7 days prior to use. The cells were loaded with fluo-3 AM (Molecular Probes, Inc., Eugene, Oreg.) in buffer (25 mM Hepes, 125 mM NaCl, 1 gm/l glucose, 0.1% BSA, 5 mM KCl, 0.5 mM CaCl2, 0.5 mM MgCl2, pH 7.45) containing Pluronic (Molecular Probes) Cells were incubated with 5 μM fluo-3 AM for 1 hour shielded from light at room temperature. Intracellular fluorescence was measured using FLIPR (fluorometric imaging plate reader; Molecular Devices, Inc., Sunnyvale, Calif.). The FLIPR protocol called for images to be collected at one second intervals with 50 μl of the test compound added after the initial 10 images. An additional 70 images were then taken to detect any compound agonistic activity. FLIPR then added 50 μl of agonist peptide and collected a final 40 images for quantitating compound antagonistic activity. V1a- and V1b-expressing HEK cells were challenged with 1 nM and 0.5 nM AVP, respectively. Oxytocin-expressing HEK cells were challenged with 0.5 nM oxytocin (Peninsula Labs).
(§4) The data from the cAMP accumulation and the calcium mobilization assays are expressed as IC50 values as determined from dose response curves.
Background: Calcium flux is commonly read through the fluorescence of an indicator in the cells.

A further test concerns the target T3, human V1b receptor (Homo sapiens, UniProt P47901).
T3 sequence (P47901 1-424): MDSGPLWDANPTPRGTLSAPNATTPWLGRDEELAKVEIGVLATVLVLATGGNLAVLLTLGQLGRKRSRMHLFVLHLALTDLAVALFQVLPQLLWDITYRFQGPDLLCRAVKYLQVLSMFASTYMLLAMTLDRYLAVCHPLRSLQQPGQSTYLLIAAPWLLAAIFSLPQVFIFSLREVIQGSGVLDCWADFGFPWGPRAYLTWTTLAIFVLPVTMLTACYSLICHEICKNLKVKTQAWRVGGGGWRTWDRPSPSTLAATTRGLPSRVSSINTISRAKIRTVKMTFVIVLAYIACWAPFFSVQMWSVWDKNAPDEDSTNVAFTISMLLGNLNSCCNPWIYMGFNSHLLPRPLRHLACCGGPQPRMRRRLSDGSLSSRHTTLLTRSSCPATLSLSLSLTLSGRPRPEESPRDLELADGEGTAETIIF
Put plainly: V1b functional assay, intracellular calcium mobilization in transfected HEK-293 cells (FLIPR). The format is cell-based. As to conditions: HEK293; 30 μM compound; read-out: Cell-Based Functional activity V1b % Inh. @ 30. Set-up: expressed in transfected cells; host or cells: HEK-293. The procedure:
as §1, §2, §3, §4

The target of the next test is human V2 receptor (Homo sapiens, UniProt P30518). Put plainly: V2 functional assay, cAMP accumulation in transfected HEK-293 cells. It counts as cell-based. Set-up: expressed in transfected cells; host or cells: HEK-293. As to conditions: HEK293; 30 μM compound; read-out: Cell-Based Functional activity V2 % Inh. @ 30. The procedure: as §1, §2
The accumulation of cAMP was measured in transfected HEK-293 expressing the human V2 receptor. The cells were cultured 4-7 days in 96-well plates. On the day of assay, cells were washed twice in assay media (DMEM/F12 containing 0.1% BSA). The cells were treated with the test compound for 5 minutes and then given AVP (1 nM) in assay media containing 1 mM isobutylmethylxanthine. After 5 minutes, 0.5 N HCl was added to disrupt the cells and solubilize cAMP. The cAMP content of 20 μl of the cell lysate in each well was measured using cAMP Flashplates (NEN Life Sciences). Data are expressed as pmol cAMP/well. While the assay is optimized to detect and quantitate antagonistic activity, agonistic activity would also be apparent at the higher concentrations of test compounds.
as §4
(In general: Cyclic AMP is a second messenger, typically raised through Gs and lowered through Gi signalling.)

Test [2] concerns the target T2, human V1a receptor. Put plainly: V1a binding assay (3H-AVP displacement, HEK-293 membranes). As to conditions: 1.0 μM compound; read-out: V1a@1.0, % Inh. On the set-up: expressed in transfected cells; host or cells: HEK-293 (membranes). The procedure, abridged:
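Read-out is filter-retained 3H-AVP, counted by scintillation after washing with cold saline/0.05% Tween 20. Binding ran 1 hour at room temperature in pH 7.5 buffer with protease inhibitors; 1.25 μM unlabelled AVP gave non-specific binding.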

A further test deals with V1a (Rattus norvegicus, UniProt P30560). As to conditions: stated in literature; cited from earlier work.
The target in test [3] is T2, human V1a receptor. Set-up: expressed in transfected cells; host or cells: HEK-293. As to conditions: stated in literature; cited from earlier work.

T2 sequence (P37288 whole entry): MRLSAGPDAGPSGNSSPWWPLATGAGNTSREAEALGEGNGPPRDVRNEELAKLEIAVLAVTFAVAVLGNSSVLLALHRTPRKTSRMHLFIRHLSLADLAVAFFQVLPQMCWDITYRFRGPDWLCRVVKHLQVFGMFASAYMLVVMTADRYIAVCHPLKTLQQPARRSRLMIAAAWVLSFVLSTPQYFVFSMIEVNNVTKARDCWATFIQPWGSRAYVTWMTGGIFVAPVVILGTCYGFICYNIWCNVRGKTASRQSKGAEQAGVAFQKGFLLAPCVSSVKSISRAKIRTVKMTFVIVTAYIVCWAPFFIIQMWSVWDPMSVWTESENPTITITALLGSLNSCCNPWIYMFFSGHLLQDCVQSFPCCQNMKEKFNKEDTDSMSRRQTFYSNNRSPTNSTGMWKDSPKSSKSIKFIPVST
Sequence of V1a (P30560 whole entry): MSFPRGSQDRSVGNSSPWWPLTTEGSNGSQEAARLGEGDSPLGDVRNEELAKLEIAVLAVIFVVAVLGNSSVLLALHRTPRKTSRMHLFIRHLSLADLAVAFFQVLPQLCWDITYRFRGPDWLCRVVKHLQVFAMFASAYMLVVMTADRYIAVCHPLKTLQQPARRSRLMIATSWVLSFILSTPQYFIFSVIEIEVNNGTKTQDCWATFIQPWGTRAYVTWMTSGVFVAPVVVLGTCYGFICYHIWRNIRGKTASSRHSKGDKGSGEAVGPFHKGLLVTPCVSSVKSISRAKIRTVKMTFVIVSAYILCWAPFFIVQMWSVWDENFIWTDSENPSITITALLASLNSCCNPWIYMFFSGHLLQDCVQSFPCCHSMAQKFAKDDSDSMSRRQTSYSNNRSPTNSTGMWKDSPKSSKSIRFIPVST
Sequence of human V2 receptor (P30518 whole entry): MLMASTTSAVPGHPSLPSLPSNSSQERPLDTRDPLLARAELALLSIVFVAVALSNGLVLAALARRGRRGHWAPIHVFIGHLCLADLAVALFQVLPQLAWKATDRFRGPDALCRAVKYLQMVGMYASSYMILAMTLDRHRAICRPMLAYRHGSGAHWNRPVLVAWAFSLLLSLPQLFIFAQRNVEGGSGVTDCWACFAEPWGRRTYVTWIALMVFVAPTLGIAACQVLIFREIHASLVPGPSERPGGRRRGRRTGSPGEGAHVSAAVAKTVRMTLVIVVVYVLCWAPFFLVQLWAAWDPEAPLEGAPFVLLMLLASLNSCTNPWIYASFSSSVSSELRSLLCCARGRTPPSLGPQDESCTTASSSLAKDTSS

The IC50 is the midpoint of a concentration-inhibition curve. As for `COC(=O)[C@@H](Cc1ccccc1)NC(=S)N1CCC(n2c(=O)n(CCCNC(=N)N)c3ccccc32)CC1` [Compound 58], the inhibition at 10 µM at NPY2 receptors amounted to 2%. In addition, the IC50 at human V1a receptor [1] came out at 1430 nM. For the same compound, the inhibition at 30 µM at human V1b receptor and on human V2 receptor was 0% in each case. Further, the inhibition at 1 µM on human V1a receptor [2] is 52%.

Consider `CC(=O)NCCCOc1ccc(C(=O)N2CCC(N3C(=O)CCc4ccccc43)CC2)cc1` [OPC 21268], for which the activity in rat entry at V1a is “only active in rat”. For the same compound, the “activity when tested for binding to human V1a receptor” value on human V1a receptor [3] is “no activity”.

The record behind these values is patent publication US6653478B2, “Substituted benzimidazol-2-ones as vasopressin receptor antagonists and neuropeptide Y modulators” (Ortho-McNeil Pharmaceutical, Inc., priority 2000, dated 2003).
